Experiments:
ATM/ATR kinases = test: Phosphorylation of exogenously expressed Flag-tagged SerRS in hypoxic HEK293 cells (IP/IB with anti-P-SQ); type: cell-based, human; settings: hypoxia 12 hours
VEGFA = VEGFA expression by qRT-PCR in HEK293 cells transfected with SerRS constructs; type: cell-based, human; settings: HEK293 cells transfected with construct
Protocol: In FIG. 2A, wild type SerRS (SerRS^WT), its mutants with double substitutions of serine 101 and 241 with alanine or aspartic acid residues (SerRS^S101A/S241A and SerRS^S101D/S241D), or empty vector were transfected into HEK293 cells. The expression levels of SerRS proteins was measured by immunoblot (bottom) and VEGFA expression was determined by qRT-PCR (means±SEM from three independent experiments; ***P<0.0001). […] At 3 day post fertilization (dpf), embryos were harvested and Vegfa expression levels were measured by qRT-PCR (means±SEM, n=125-211; *P<0.01, **P<0.001) (B). The development of intersegmental vessel (ISV) at 3 dpf was examined (C) and the statistics of ISV abnormal branching rescued by SerRS^WT or mutant SerRS mRNA injections was analyzed (D; χ^2-test,* P>0.05 vs SerRS^WT, **P>0.1 vs SerRS-MO, ***P<1×10^−28 vs control-MO). […] In FIG. 2G, the binding of endogenous SerRS on VEGFA promoter during hypoxia course was monitored by ChIP (means±SEM from three independent experiments; *P<0.05, **P<0.005 vs normal). […]
HEK293 cells were transfected with wild type (WT) SerRS or SerRS mutants. […] At 24 hours post-transfection, cells were harvested and VEGFA expression levels were measured by qRT-PCR and relative VEGFA transcription were plotted after being normalized to 1-actin (means±: SEM).

[1] = system: SerRS binding site on human VEGFA promoter; test: EMSA with 32P-labeled 27-bp DNA fragment of the VEGFA promoter; settings: recombinant protein
VEGFA promoter = test: Chromatin immunoprecipitation (ChIP) on VEGFA promoter in HEK293 cells; type: cell-based, human; settings: ChIP and qPCR
Protocol: In FIG. 2A, wild type SerRS (SerRS^WT), its mutants with double substitutions of serine 101 and 241 with alanine or aspartic acid residues (SerRS^S101A/S241A and SerRS^S101D/S241D), or empty vector were transfected into HEK293 cells. The expression levels of SerRS proteins was measured by immunoblot (bottom) and VEGFA expression was determined by qRT-PCR (means±SEM from three independent experiments; ***P<0.0001). […] At 3 day post fertilization (dpf), embryos were harvested and Vegfa expression levels were measured by qRT-PCR (means±SEM, n=125-211; *P<0.01, **P<0.001) (B). The development of intersegmental vessel (ISV) at 3 dpf was examined (C) and the statistics of ISV abnormal branching rescued by SerRS^WT or mutant SerRS mRNA injections was analyzed (D; χ^2-test,* P>0.05 vs SerRS^WT, **P>0.1 vs SerRS-MO, ***P<1×10^−28 vs control-MO). […] In FIG. 2G, the binding of endogenous SerRS on VEGFA promoter during hypoxia course was monitored by ChIP (means±SEM from three independent experiments; *P<0.05, **P<0.005 vs normal).
Cells were fixed with formaldehyde (1% final concentration) for 10 min at room temperature. […] After 3 washes, ChIPed DNA was analyzed on the StepOnePlus Real-Time PCR system using SYBR Select Master Mix (Applied Biosystems). […]

Substance | phosphorylation of exogenously expressed SerRS (ATM/ATR kinases) | repression of VEGFA transcription (VEGFA) | direct binding to 27-bp DNA fragment from the VEGFA promoter [1] | binding on VEGFA promoter (VEGFA promoter)
SerRS^S101A/S241A: phosphorylation-deficient human SerRS double mutant, serine 101 and 241 to alanine, SEQ ID NO: 4 (mouse version in matrigel assay) | much weaker phosphorylation than wild type SerRS |  |  | 
SerRS^S101D/S241D: SerRS with double substitutions of S101 and S241 with aspartic acid, mimics the phosphorylated SerRS |  | can no longer repress VEGFA transcription | attenuated | decreased binding on VEGFA promoter
